What all share (assay): NCI tumour cell line growth inhibition, 48 h
In experiment [1] the test system is NCI-H226 lung.
Experiment [2] concerns M14 melanoma.
The test system of experiment [3] is HOP-92 NSCLC.
The test system of experiment [4] is HT29 colon.
Experiment [5] relates to SK-MEL-5 melanoma.
For experiment [6], the system named is MALME-3M melanoma.
The test system of experiment [7] is DU-145 prostate.
Experiment [8] concerns NCI/ADR-RES ovarian.
Experiment [9] relates to MDA-N.
Experiment [10] relates to BT-549 breast.

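Results reflect a 48-hour exposure of cells in 96-well plates to compound at five concentrations. Here, GI50 denotes the concentration required for 50% inhibition of growth. TGI marks complete inhibition of growth.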

On to `CCC(=O)OC1CCn2c1nc1c2C(=O)C(C)=C(NC(C)=O)C1=O` (stereo not given), for which the TGI in [1] is 3.27 µM; in experiment [2] it was 3.32 µM; in [3], 3.5 µM; in [4], 3.59 µM; in experiment [5], 3.27 µM; in [6], 2.96 µM.

Turning to `CC1CC(=O)Nc2ccc(Cl)cc2N1C(=O)CN1CCC(CCCCN(C)C)CC1` (stereo not given), the TGI in experiment [1], in experiment [2], in experiment [3], in experiment [4], in experiment [5] and in experiment [6] was greater than 100 µM each time.

`CC(=O)Nc1ccc(-c2nnc(SCC(=O)Nc3cccc(C)c3)o2)cc1`: the TGI in experiment [1] is 30.8 µM; in experiment [2], 25.6 µM; in experiment [3] it was 26.2 µM; in [4], 25.4 µM; in experiment [5], 23.1 µM; in experiment [6] it was 27.2 µM.

With `CCCCn1c(-c2ccccc2)cs/c1=N\N=C1C=C(C(C)(C)C)C(=O)C(C(C)(C)C)=C1`, the TGI in experiment [1], in experiment [2], in [4] and in experiment [6] was greater than 100 µM in each case.

For the compound `CC(NC(=O)Cc1ccc(OP(=O)(OCc2ccc([N+](=O)[O-])o2)N(C)CCCCCl)cc1)c1ccc(OCC2CCCCC2)c(C(N)=O)c1` (stereo not given), the TGI in experiment [1] was determined as 7.09 µM; in experiment [7], 14.4 µM; in [2], 4.64 µM; in [8], 94.3 µM; in experiment [4] it was 3.18 µM; in experiment [5], 2.97 µM. The TGI came to 3.94 µM in experiment [9] and 4.42 µM in [6].

With `O=C1c2ccccc2N=C(c2cc3c(cc2Cl)Sc2nccn2S3(=O)=O)OS(=O)(=O)N1c1ccccc1`, the TGI was greater than 100 µM in experiment [1]; greater than 100 µM in experiment [7]; 47.5 µM in experiment [2]; greater than 100 µM in experiment [3]; 61 µM in experiment [4]; 61.1 µM in [10]. Besides, in experiment [6], the TGI is greater than 100 µM.

As for `CC(=O)O[C@@H]1[C@H](OC2CCCCC2(c2ccccc2)c2ccccc2)O[N+]([O-])=CC12CCCCC2` (stereo not given in full), the TGI in experiment [1] is 27.8 µM; in experiment [7] it was 32 µM; in [2], 33.8 µM; in experiment [8], 30.5 µM; in experiment [3] it was 59.2 µM; in experiment [4], 36.2 µM. The results for the TGI in experiment [5] and in experiment [9] were 28.2 µM and 36.7 µM, respectively.

As to `O=C(NN1C(=O)C(Cl)C1c1cccc(O)c1)c1ccccc1O` (stereo not given), the TGI in experiment [1], in [2], in experiment [4], in [5] and in experiment [6] was greater than 100 µM throughout.

With `O=c1oc2cc(O)ccc2c2[nH]c3cc(O)ccc3c12`, the TGI is 78 µM in [1]; greater than 100 µM in experiment [2]; 95.4 µM in experiment [3]; greater than 100 µM in [4]; greater than 100 µM in experiment [6].

In the case of `Cc1cc(C)cc(Nc2nnc3n2S(=O)(=O)c2cc(C)c(Cl)cc2S3)c1`, the TGI in experiment [1] was 30.5 µM; in experiment [7], 97 µM; in [2], 33.4 µM; in experiment [8], 9.26 µM; in experiment [4], greater than 100 µM; in experiment [5], 24.7 µM. The TGI amounted to 70.9 µM in [10] and 13.7 µM in experiment [6].

For `Cc1ccc(S(=O)(=O)NC(=O)C2S(=O)(=O)OCCOS2(=O)=O)cc1`, the TGI in experiment [1], in [2], in experiment [3], in [4], in experiment [5] and in [6] was greater than 100 µM each time.

`CCN(CC)CC1CCCCN1CC(=O)N1c2cc(Cl)ccc2NC(=O)CC1C` (stereo not given): the TGI in [1], in experiment [2], in experiment [3], in experiment [5] and in experiment [6] was greater than 100 µM in each case.

On to `O=Cc1c2c(cc3c1CC1(C3)Cc3cc4c(c(C=O)c3C1)CCCC4)CCCC2`, for which the TGI in experiment [1] was greater than 31.6 µM; in [7], greater than 100 µM; in experiment [2], greater than 31.6 µM; in experiment [8] it was greater than 31.6 µM; in experiment [3], greater than 31.6 µM; in [4], greater than 31.6 µM. Besides, the TGI in experiment [5], in [9] and in experiment [6] was greater than 31.6 µM throughout.

Regarding `C1=N[C@]23C(=N[C@H](N=C2NCc2ccco2)[C@]24N=CNC2=N[C@H]3N=C4NCc2ccco2)N1`, the GI50 is 65.4 µM in [1]; greater than 100 µM in experiment [7]; greater than 100 µM in experiment [2]; greater than 100 µM in experiment [8]; 5.34 µM in [3]; greater than 100 µM in [4]. The GI50 in [5] and in experiment [6] was greater than 100 µM each time. For the same compound, the TGI in experiment [1], in [7], in experiment [2], in experiment [8], in [3] and in experiment [4] was greater than 100 µM throughout. Further, the TGI in experiment [5] and in [6] was greater than 100 µM in each case.

As to `CCOC(=O)/C=C/n1c2ccccc2c(=O)c2cc(OC)ccc21`, the TGI in experiment [1], in experiment [2], in experiment [3], in experiment [4], in experiment [5] and in experiment [6] was greater than 100 µM in each case.

On to `O=C(Nc1ccccc1[N+](=O)[O-])/C(=N/Nc1cccc(Cl)c1)c1c(O)c2ccccc2oc1=O`, for which the TGI in experiment [1] was greater than 100 µM; in experiment [2], greater than 100 µM; in [3], 96.5 µM; in experiment [4], greater than 100 µM; in [5], greater than 100 µM; in experiment [6], greater than 100 µM.

For `Cn1c(N/N=C/c2ccccc2)nc(-c2ccc3c(c2)OCO3)c(C#N)c1=O`, the TGI in experiment [7] was greater than 100 µM; in experiment [2], greater than 100 µM; in experiment [8], greater than 100 µM; in [3], 67.2 µM; in [4], greater than 100 µM; in experiment [5], greater than 100 µM. Also, the TGI in experiment [9] and in experiment [6] was greater than 100 µM each time.

`CCOC(=O)NN(C(=O)OCC)c1ccc(N=Nc2ccc(OC)cc2)n1C`: the TGI in experiment [1] was found to be 97.2 µM; in experiment [2], 50 µM; in experiment [8], 94.6 µM; in [3], 78.5 µM; in [4], 58.3 µM; in experiment [5], 32.6 µM. Moreover, the TGI in experiment [9] worked out at 40.7 µM; in experiment [6] it was 62.7 µM.

On to `Cc1ccc2nc(N)[nH]c(=O)c2c1Sc1ccncc1`, for which the TGI in [2], in experiment [3], in [4], in [5] and in experiment [6] was greater than 100 µM each time.

`Oc1cc(O)c2c(c1)O[C@H](c1ccc(O)c(O)c1)[C@@H](O)C2`: the TGI in experiment [1], in [7], in experiment [2], in experiment [8], in experiment [3] and in experiment [4] was greater than 100 µM throughout. For the same compound, the TGI in experiment [5], in [9] and in [6] was greater than 100 µM in each case.

For the compound `C=CCn1c(-c2cc(C(C)(C)C)c(O)c(C(C)(C)C)c2)cs/c1=N\C(P(=O)(O)O)P(=O)(O)O`, the TGI in experiment [1], in [7], in experiment [2], in experiment [8], in experiment [3] and in experiment [4] was greater than 100 µM in each case. The TGI in [10] and in experiment [6] was greater than 100 µM each time.

As to `CC(C)OP(=O)(OC(C)C)C(=NCCO)NNc1ccc([N+](=O)[O-])cc1`, the TGI in experiment [1], in experiment [2], in experiment [3], in experiment [5] and in experiment [6] was greater than 100 µM throughout.

Regarding `CN1C(=O)c2ccccc2C(O)(c2ccccc2)C1(O)c1ccccc1` (stereo not given), the TGI in [1] was greater than 100 µM; in experiment [2], greater than 100 µM; in experiment [8], greater than 100 µM; in [3] it was 97.7 µM; in experiment [4] it was greater than 100 µM; in experiment [5] it was greater than 100 µM. Also, the TGI in [10], in [9] and in experiment [6] was greater than 100 µM in each case.

On to `COc1ccccc1-n1cnc2c1NC(C)(C)N=C2C(N)=O`, for which the TGI in experiment [1], in [7], in [2], in experiment [8], in experiment [4] and in experiment [5] was greater than 100 µM each time. Moreover, the TGI in experiment [9] and in experiment [6] was greater than 100 µM throughout.

Consider `Oc1ccc(-c2c3ccccc3c(-c3ccc(O)cc3)c3ccccc23)cc1`, for which the TGI in [1], in experiment [2], in [3], in [4], in experiment [5] and in [6] was greater than 100 µM in each case.

As for `O=C1CC(c2ccc(Cl)cc2)C2(C(=O)NC(=S)NC2=O)C(c2ccc(Cl)cc2)C1` (stereo not given), the TGI in experiment [1] is 66.9 µM; in experiment [7], greater than 100 µM; in [2] it was 44.7 µM; in [8], 52 µM; in experiment [3] it was 40.3 µM; in experiment [4], 32.4 µM. For the same compound, the results for the TGI in experiment [5], in experiment [9] and in experiment [6] were 33.1 µM, 34.1 µM and 52.1 µM, respectively.

As for `Cc1c(C)c2c(c(C)c1OC(=O)CCC(=O)[O-])CCC(C)(CCCCCCCCCCC[P+](c1ccccc1)(c1ccccc1)c1ccccc1)O2` (stereo not given), the GI50 in experiment [7] is 0.218 µM; in experiment [8], 5.62 µM; in [3] it was 0.078 µM; in [4], 0.166 µM; in [5], 0.0904 µM; in [10], 0.14 µM. The TGI in experiment [7] is 0.899 µM; in experiment [8], 22 µM; in [3] it was 0.276 µM; in experiment [4], 2.07 µM; in experiment [5], 0.182 µM; in experiment [10], 0.678 µM.

Take `N#C/C(=C\c1ccc(O)c(O)c1)c1c(C#N)c(N)nn1-c1ccccc1`: the TGI is 31.9 µM in experiment [2]; greater than 100 µM in [3]; 65.8 µM in experiment [4]; 34.4 µM in experiment [5]; 26.8 µM in [6].

Consider `Cc1ccc(S(=O)(=O)NC(=O)Nc2c(S(N)(=O)=O)cc(S(N)(=O)=O)c(Cl)c2Cl)cc1`, for which the TGI in experiment [1], in experiment [2], in experiment [8], in experiment [3], in [4] and in experiment [5] was greater than 100 µM each time. For the same compound, the TGI in experiment [10], in experiment [9] and in [6] was greater than 100 µM each time.

As to `CCOC(=O)/C(Br)=C1\OC(=O)c2ccccc2-c2ccccc21`, the TGI in experiment [1] is 86.1 µM; in experiment [2], greater than 100 µM; in [3] it was 79.9 µM; in experiment [4] it was greater than 100 µM; in experiment [5], greater than 100 µM; in [6], greater than 100 µM.

`COc1cccc(N/C(C)=C2/CCOC2=O)c1`: the TGI in experiment [1], in experiment [7], in [2], in experiment [8], in experiment [4] and in [5] was greater than 10 µM throughout. In addition, the TGI in experiment [9] and in experiment [6] was greater than 10 µM in each case.

In the case of `OC1(c2ccccc2)CC2CCC(C1)N2CCCC(O)(c1ccccc1)c1ccccc1` (stereo not given), the TGI in [1] worked out at 29 µM; in [7], 56.8 µM; in [2] it was 30.8 µM; in experiment [8] it was 39.1 µM; in experiment [3], 18.9 µM; in experiment [4], 9.64 µM. The values for the TGI in experiment [5], in experiment [10] and in [6] were 10.2 µM, 26.3 µM and 39.1 µM, respectively.

Regarding `COc1ccc(CN(CCN(C)C)c2ccccn2)cc1` (tested in a mixture with another compound), the TGI in experiment [2], in [3], in experiment [4], in experiment [5] and in experiment [6] was greater than 100 µM each time.

Values taken from PubChem BioAssay (NCI).
